Measurements taken from patent publication US20230295119A1, “SUBSTITUTED PYRIDINES FOR THE TREATMENT OF INFLAMMATORY DISEASES” (GOSSAMER BIO SERVICES, INC., priority 2020, published 2023).

Key:
[1] = target: human JAK2 (Homo sapiens (Human), UniProt O60674); assay: JAK2 TR-FRET kinase assay; type: biochemical; details: JAK2 0.025 nM
[2] = target: TYK2 JH2 domain (Homo sapiens (Human), UniProt P29597); assay: TYK2 JH2 NanoBRET assay; type: binding; details: Table 20, read-out: TYK2 IC50
Summary of the method: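 HEK293T cells transiently expressing NanoLuc-TYK2 JH2 fusion, incubated 2 h with compound and NanoBRET K10 tracer (0.5 µM final). Target engagement read as acceptor/donor BRET ratio after Nano-Glo substrate plus extracellular NanoLuc inhibitor.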

[3] = target: human JAK3 (Homo sapiens (Human), UniProt P52333); assay: JAK3 TR-FRET kinase assay; type: biochemical; details: JAK3 0.0125 nM
Sequence of human JAK3 (P52333 whole entry): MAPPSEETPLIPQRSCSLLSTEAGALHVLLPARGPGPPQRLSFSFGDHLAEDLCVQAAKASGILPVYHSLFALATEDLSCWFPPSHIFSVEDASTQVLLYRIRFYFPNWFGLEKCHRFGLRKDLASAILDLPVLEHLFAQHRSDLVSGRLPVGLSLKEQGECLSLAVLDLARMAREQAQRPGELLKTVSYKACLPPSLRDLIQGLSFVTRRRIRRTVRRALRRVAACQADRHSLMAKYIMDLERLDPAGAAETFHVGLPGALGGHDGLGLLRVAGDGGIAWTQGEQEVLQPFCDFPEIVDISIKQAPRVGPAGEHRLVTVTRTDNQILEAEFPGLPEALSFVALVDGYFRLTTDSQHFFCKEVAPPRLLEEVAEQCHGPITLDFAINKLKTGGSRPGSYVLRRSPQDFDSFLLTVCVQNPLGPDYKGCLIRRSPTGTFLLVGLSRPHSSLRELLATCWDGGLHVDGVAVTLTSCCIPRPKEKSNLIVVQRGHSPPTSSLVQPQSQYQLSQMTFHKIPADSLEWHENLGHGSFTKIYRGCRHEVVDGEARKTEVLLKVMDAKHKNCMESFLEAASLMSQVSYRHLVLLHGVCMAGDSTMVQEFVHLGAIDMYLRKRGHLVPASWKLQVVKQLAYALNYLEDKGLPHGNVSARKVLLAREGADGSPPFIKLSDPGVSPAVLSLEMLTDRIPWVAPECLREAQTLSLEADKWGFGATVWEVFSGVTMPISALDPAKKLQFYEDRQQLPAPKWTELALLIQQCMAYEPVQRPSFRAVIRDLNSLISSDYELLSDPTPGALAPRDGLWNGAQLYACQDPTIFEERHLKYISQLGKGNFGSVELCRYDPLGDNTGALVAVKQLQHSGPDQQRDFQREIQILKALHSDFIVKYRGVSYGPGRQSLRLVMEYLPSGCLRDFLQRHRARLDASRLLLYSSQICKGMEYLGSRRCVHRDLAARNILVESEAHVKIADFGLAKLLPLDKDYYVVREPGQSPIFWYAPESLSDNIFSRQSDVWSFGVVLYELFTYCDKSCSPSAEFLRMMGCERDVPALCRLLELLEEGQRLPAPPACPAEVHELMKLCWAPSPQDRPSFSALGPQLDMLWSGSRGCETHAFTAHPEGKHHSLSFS

[4] = target: human JAK1 (Homo sapiens (Human), UniProt P23458); assay: JAK1 TR-FRET kinase assay; type: biochemical; details: TR-FRET, JAK1 2.5 nM
Sequence of human JAK1 (P23458 whole entry): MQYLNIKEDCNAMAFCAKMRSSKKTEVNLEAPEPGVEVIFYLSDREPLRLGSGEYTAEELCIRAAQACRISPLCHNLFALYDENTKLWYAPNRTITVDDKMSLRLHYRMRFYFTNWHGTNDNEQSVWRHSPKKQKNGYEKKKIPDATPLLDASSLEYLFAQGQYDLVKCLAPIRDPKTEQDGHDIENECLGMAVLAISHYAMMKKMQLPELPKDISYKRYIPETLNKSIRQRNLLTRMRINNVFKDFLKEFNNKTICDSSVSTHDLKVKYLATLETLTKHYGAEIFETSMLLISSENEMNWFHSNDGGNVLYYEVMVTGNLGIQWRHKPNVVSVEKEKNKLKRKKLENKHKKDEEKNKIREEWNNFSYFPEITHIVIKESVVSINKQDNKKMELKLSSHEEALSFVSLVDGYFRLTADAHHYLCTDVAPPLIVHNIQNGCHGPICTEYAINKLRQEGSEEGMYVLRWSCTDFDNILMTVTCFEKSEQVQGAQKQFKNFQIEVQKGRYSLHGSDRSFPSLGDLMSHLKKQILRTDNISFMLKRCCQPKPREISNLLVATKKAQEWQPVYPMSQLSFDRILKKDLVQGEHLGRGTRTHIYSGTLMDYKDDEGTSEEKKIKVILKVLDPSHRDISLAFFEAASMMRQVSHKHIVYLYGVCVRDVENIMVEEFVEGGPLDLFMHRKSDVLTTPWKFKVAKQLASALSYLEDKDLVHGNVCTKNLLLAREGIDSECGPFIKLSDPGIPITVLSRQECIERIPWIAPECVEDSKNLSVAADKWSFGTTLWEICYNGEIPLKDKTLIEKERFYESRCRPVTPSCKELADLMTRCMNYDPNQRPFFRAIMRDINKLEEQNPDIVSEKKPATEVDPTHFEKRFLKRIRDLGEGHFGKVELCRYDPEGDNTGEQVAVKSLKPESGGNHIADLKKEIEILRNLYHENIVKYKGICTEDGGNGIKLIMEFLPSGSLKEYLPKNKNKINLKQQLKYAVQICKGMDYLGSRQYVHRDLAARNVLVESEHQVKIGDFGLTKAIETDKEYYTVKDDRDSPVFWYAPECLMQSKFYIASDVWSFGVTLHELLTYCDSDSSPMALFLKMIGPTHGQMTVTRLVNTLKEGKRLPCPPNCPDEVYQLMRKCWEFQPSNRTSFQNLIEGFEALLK

Sequence of human JAK2 (O60674 whole entry, the tested form may be a part): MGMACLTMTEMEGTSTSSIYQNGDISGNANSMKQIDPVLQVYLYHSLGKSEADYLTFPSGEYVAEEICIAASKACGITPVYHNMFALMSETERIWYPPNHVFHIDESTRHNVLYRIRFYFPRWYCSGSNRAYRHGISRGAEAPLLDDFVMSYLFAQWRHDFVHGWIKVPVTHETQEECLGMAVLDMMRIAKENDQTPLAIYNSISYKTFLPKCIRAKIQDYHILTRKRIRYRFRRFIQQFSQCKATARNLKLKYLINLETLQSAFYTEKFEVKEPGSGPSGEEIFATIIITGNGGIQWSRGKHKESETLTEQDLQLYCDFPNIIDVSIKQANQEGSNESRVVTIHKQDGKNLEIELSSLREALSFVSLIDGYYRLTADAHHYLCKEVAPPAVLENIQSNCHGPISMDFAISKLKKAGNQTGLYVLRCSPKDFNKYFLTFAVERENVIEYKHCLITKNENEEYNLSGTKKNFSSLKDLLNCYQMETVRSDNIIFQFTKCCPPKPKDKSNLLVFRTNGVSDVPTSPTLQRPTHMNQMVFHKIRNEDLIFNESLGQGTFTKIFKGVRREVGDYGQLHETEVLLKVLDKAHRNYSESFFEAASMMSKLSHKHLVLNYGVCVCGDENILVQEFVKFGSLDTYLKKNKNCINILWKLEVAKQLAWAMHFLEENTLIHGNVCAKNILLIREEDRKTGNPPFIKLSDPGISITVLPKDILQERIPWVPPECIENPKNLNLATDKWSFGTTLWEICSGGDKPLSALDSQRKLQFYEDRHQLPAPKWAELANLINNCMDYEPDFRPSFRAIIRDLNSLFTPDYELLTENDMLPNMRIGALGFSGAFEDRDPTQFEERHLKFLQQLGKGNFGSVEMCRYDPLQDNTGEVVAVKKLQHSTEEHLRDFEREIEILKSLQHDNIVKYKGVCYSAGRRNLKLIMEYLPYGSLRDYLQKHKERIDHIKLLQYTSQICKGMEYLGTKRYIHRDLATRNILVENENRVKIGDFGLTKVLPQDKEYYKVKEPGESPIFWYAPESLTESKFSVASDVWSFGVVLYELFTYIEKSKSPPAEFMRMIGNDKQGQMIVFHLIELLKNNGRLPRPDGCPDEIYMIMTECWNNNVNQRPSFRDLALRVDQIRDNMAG
Sequence of TYK2 JH2 domain (P29597 589-875): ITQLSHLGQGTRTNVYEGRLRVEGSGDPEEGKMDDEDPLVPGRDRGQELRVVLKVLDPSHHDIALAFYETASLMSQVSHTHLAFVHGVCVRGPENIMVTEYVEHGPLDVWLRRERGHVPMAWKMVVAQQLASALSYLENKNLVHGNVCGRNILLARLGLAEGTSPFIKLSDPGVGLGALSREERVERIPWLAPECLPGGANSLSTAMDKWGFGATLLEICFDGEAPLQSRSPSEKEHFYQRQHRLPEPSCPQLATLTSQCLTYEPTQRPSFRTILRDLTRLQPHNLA

Compound	IC50 [1] [nM]	IC50 [2] [nM]	IC50 [3] [nM]	IC50 [4] [nM]
CCC(=O)c1cnc(Nc2ccc(S(=O)(=O)CC)cn2)cc1Nc1nccc(-c2ncn(C)n2)c1OC [Compound 13J]	≥ 500	< 5	≥ 500	≥ 500
CCC(=O)c1cnc(Nc2ccc(S(=O)(=O)C3CC3)cn2)cc1Nc1nccc(-c2ncn(C)n2)c1OC [Compound 13K]	50 to 500	5 to 50	50 to 500	≥ 500
CCC(=O)c1cnc(Nc2ccc(S(C)(=N)=O)cn2)cc1Nc1nccc(-c2ncn(C)n2)c1OC (stereo not drawn) [Compound 13L]	≥ 500	≥ 500	≥ 500	≥ 500
CCC(=O)c1cnc(Nc2ccc(CS(C)(=O)=O)cn2)cc1Nc1nccc(-c2ncn(C)n2)c1OC [Compound 13M]	50 to 500	< 5	≥ 500	≥ 500
CCC(=O)c1cnc(Nc2cccc(CS(C)(=O)=O)n2)cc1Nc1cccc(-c2ncn(C)n2)c1OC [Compound 13N]	50 to 500	5 to 50	50 to 500	≥ 500
CCC(=O)c1cnc(Nc2ccc(S(C)(=O)=O)cn2)cc1Nc1cccc(CO)c1OC [Compound 13P]	≥ 500	5 to 50	50 to 500	≥ 500
CCC(=O)c1cnc(Nc2ccc(S(C)(=O)=O)cn2)cc1Nc1cccc(C(C)O)c1OC (stereo not drawn) [Compound 13Q]	≥ 500	5 to 50	≥ 500	≥ 500
CCC(=O)c1cnc(Nc2ccc(S(C)(=O)=O)cn2)cc1Nc1cccc(COC)c1OC [Compound 13R]	≥ 500	5 to 50	≥ 500	≥ 500
CCC(=O)c1cnc(Nc2ccc(CS(C)(=O)=O)nn2)cc1Nc1cccc(-c2ncn(C)n2)c1OC [Compound 13T]	≥ 500	5 to 50	≥ 500	≥ 500
CCC(=O)c1cnc(Nc2cnc(CS(C)(=O)=O)cn2)cc1Nc1cccc(-c2ncn(C)n2)c1OC [Compound 13U]	≥ 500	5 to 50	≥ 500	≥ 500
CCC(=O)c1cnc(Nc2ccc(C3(S(C)(=O)=O)CC3)nn2)cc1Nc1cccc(-c2ncn(C)n2)c1OC [Compound 13V]	≥ 500	< 5	≥ 500	≥ 500
CCC(=O)c1cnc(Nc2ccc(S(C)(=O)=O)cn2)cc1Nc1ccc(C(=O)N2CCCC2)cc1OC [Compound 13W]	50 to 500	50 to 500	50 to 500	≥ 500
CCC(=O)c1cnc(Nc2ccc(S(C)(=O)=O)cn2)cc1Nc1ccc(CO)cc1OC [Compound 13X]	50 to 500	50 to 500	50 to 500	≥ 500
CCC(=O)c1cnc(Nc2ccc(S(C)(=O)=O)cn2)cc1Nc1cccc(C(C)(C)O)c1OC [Compound 13Y]	≥ 500	50 to 500	≥ 500	≥ 500
CCC(=O)c1cnc(Nc2ncc(S(C)(=O)=O)cc2F)cc1Nc1cccc(-c2ncn(C)n2)c1OC [Compound 13Z]	≥ 500	50 to 500	≥ 500	≥ 500
CCC(=O)c1cnc(Nc2ccc(S(C)(=N)=O)cn2)cc1Nc1cccc(-c2ncn(C)n2)c1OC (stereo not drawn) [Compound 14A, imino(6-((4-((2-methoxy-3-(1-methyl-1H-1,2,4-triazol-3-yl)phenyl)amino)-5-propionylpyridin-2-yl)amino)pyridin-3-yl)(methyl)-16-sulfanone]	≥ 500	< 5	≥ 500	≥ 500
CCC(=O)c1cnc(Nc2ccc(-n3ccccc3=O)cn2)cc1Nc1cccc(-c2ncn(C)n2)c1OC [Compound 15A, 6′-((4-((2-methoxy-3-(1-methyl-1H-1,2,4-triazol-3-yl)phenyl)amino)-5-propionylpyridin-2-yl)amino)-2H-[1,3′-bipyridin]-2-one]	≥ 500	< 5	≥ 500	≥ 500
CCC(=O)c1cnc(Nc2ncc(-n3ccccc3=O)cc2F)cc1Nc1cccc(-c2ncn(C)n2)c1OC [Compound 15AA]	≥ 500	50 to 500	≥ 500	≥ 500
CCC(=O)c1cnc(Nc2ccc3c(c2)COB3O)cc1Nc1cccc(-c2ncn(C)n2)c1OC [Compound 15BB]	≥ 500	5 to 50	≥ 500	≥ 500
CCC(=O)c1cnc(Nc2ccc(-c3cn(C)cn3)cn2)cc1Nc1cccc(-c2ncn(C)n2)c1OC [Compound 15B]	≥ 500	< 5	50 to 500	≥ 500
CCC(=O)c1cnc(Nc2cc3c(cn2)B(O)OC3)cc1Nc1cccc(-c2ncn(C)n2)c1OC [Compound 15CC]	≥ 500	< 5	≥ 500	≥ 500
